Assay results as given in PubChem BioAssay (NCI).
“And” between values parts separate entries of the source, which are not always exact repeats. Equal values may be shown once.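 Assay format: 96-well plates, 48-hour exposure. GI50 is the concentration that inhibits growth by half. Definition used: TGI = concentration required for complete inhibition of growth.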 *1 amine or outer side, *2 acyl side, *3 side chain or, on linkers, in order; H or OH if unused. Where a SMILES comes first, the peptide text is derived from it. [ ]: non-standard residue; d: D form. The star is where a group is joined. ξ: configuration not given here. X15 = CCN(CC)c1ccc2cc(N*)c(=O)oc2c1; dIva = CC[C@@](C)(N)C(=O)O; X14 = O=C(OCCN[*:1])[*:2]; Aib = CC(C)(N)C(=O)O; ξP = O=C(O)C1CCCN1; βAla = NCCC(=O)O

What was measured:
Test in all cases: NCI tumour cell line growth inhibition, 48 h
NCI-H23 lung = test system: NCI-H23 lung
MCF7 breast = test system: MCF7 breast
HCT-116 colon = test system: HCT-116 colon
SF-539 CNS = test system: SF-539 CNS
SR leukemia = test system: SR leukemia
KM12 colon = test system: KM12 colon
T-47D breast = test system: T-47D breast
SNB-19 CNS = test system: SNB-19 CNS
SK-MEL-28 melanoma = test system: SK-MEL-28 melanoma
A549 NSCLC = test system: A549 NSCLC

Compound | GI50 (NCI-H23 lung) [µM] | TGI (NCI-H23 lung) [µM] | GI50 (MCF7 breast) [µM] | TGI (MCF7 breast) [µM] | GI50 (HCT-116 colon) [µM] | TGI (HCT-116 colon) [µM] | GI50 (SF-539 CNS) [µM] | TGI (SF-539 CNS) | GI50 (SR leukemia) [µM] | TGI (SR leukemia) | GI50 (KM12 colon) [µM] | TGI (KM12 colon) [µM] | GI50 (T-47D breast) [µM] | TGI (T-47D breast) | GI50 (SNB-19 CNS) [µM] | TGI (SNB-19 CNS) [µM] | GI50 (SK-MEL-28 melanoma) [µM] | TGI (SK-MEL-28 melanoma) | GI50 (A549 NSCLC) [µM] | TGI (A549 NSCLC)
Cc1cn2c(/C=N/Nc3ccccn3)c(-c3ccc(Cl)c([N+](=O)[O-])c3)nc2s1 | 10.9 | 27.2 | 3.27 | > 50 | 8.56 | 18.4 | 1.12 | 3.53 µM | 1.86 | 10.6 µM | 23.1 | > 50 | > 50 | > 50 µM | 12.4 | 32.7 | 26.5 | > 50 µM | 8.7 | 21.9 µM
COC(=O)C(F)C(Br)C(=O)OC (configuration not stated) |  | 13.5 |  | 15.6 |  | 6.09 |  | 20.4 µM |  | 3.27 µM |  | 50.6 |  | 6.63 µM |  | > 79.3 |  | 34.3 µM |  | 39.1 µM
Nc1nc(N)c(N=O)c(OCC2CCCCC2)n1 | 9.71 | > 100 | 3.46 | > 100 |  | > 100 | 15.6 | 56.1 µM and 36.5 µM | 6.22 | > 85.9 µM and 27.4 µM |  | > 100 | 4.09 | > 58.6 µM and 23.9 µM |  | > 100 | 13.2 | > 100 µM and 76.5 µM | 15 | > 100 µM and 79.7 µM
COc1ccc(/C=C2\CCC(CN(C)C)C2=O)cc1OC (configuration not stated) |  | 32.3 |  | 8.51 |  | 7.01 |  | 25 µM |  | 9.26 µM |  | 10.8 |  | 44.5 µM |  | 30.6 |  | 13.8 µM |  | 37.4 µM
CC(C)c1ccc(Nc2nccc(-c3cnn4ncccc34)n2)cc1 | 0.483 | > 7 | 0.0653 |  | 0.324 | 4.29 | 0.481 | 1.68 µM | 0.234 | > 25 µM | 0.201 | 1.83 | 0.469 | > 6.22 µM | 0.842 | > 25 | 0.422 | 1.6 µM | 0.6 | 3.65 µM
Nc1ccc(-c2ccc(N)cc2I)c(I)c1 | 17.8 | 43.1 | 18.4 | 58.1 | 15.2 | 32 | 14.5 | 32.2 µM | 5.1 | 39.8 µM | 14.5 | 36.5 | 18.5 | 59.1 µM | 19 | 77.3 | 14.1 | 38.6 µM | 29.9 | > 100 µM
CCCCCCCOc1c(OC)cc(C2CC(=O)Nc3c2c(C)nn3-c2nc3ccccc3[nH]2)cc1OC (configuration not stated) | 2.95 | 9.96 | 2.91 | > 100 | 3.49 | > 100 | 1.66 | 3.11 µM | 3.08 | > 100 µM | 2.81 | 9.81 | 3.95 | > 100 µM | 3.93 | > 100 | 2.77 | 8.61 µM | 4.18 | > 100 µM
CSc1ccccc1C#Cc1ccccc1C#CCCCCO | 15.7 | 33 | 19.1 | 39.2 | 14 | 31.4 | 13.5 | 27.2 µM | 3.54 | 17.5 µM | 3.39 | 16.9 | 15 | 34.5 µM | 17.8 | 33.5 | 15.1 | 31.2 µM | 12.6 | 27.1 µM
Nc1n[nH]c2cccc(C#Cc3cccc(C(=O)Nc4cc(CN5CCOCC5)cc(C(F)(F)F)c4)c3)c12 | 3.56 | 18.8 | 3.28 | 15.6 | 2 | 11.1 | 2.4 | 12 µM | 2.69 | 22.9 µM | 3.43 | 14.7 | 2.23 | 10.2 µM | 5.23 | 20.3 | 2.99 | 12.1 µM | 5.32 | 19.7 µM
O=C(c1cccnc1)c1cc(-c2ccccn2)c(=O)n2ccccc12 | > 100 | > 100 | > 100 | > 100 | > 100 | > 100 | > 100 | > 100 µM | > 100 | > 100 µM | > 100 | > 100 | > 100 | > 100 µM | > 100 | > 100 | > 100 | > 100 µM | > 100 | > 100 µM
CCOC(=O)c1nc(Nc2ccc(Cl)cc2)c2ccccc2n1 | 10.7 | 18.9 | 13.6 | > 50 | 25.1 | > 50 | 10.6 | 20.9 µM | 8.87 | > 50 µM | 7.42 | 15.1 | 8.36 | 22.5 µM | 13.5 | 43.2 | 7.5 | 17.6 µM | 11.3 | 26.2 µM
O=C(N/N=C/c1cc([N+](=O)[O-])ccc1O)c1cccc2ccccc12 | 4.68 | > 100 | 2.49 | 13.4 | 2.56 | > 100 | 3.8 | 24.2 µM | 1.81 | 16.1 µM | 4.66 | > 100 | 3.28 | 23.3 µM | 7.65 | > 100 | 3.11 | 80.8 µM | 4.56 | > 100 µM
O=C(OCCBr)c1ccc(Cl)c([N+](=O)[O-])c1 | 11.2 | 27.2 | 2.51 | 7.5 | 14.3 | 30.4 | 19.6 | 36 µM | 7.9 | 31.5 µM | 5 | 10.9 | 2.29 | 5.49 µM | 1.87 | 3.74 | 2.51 | 5.42 µM | 17.7 | 35.4 µM
CCCc1cc(=O)n2c(C(=O)Nc3ccccc3OC)c(C(=O)Nc3ccc(F)cc3)sc2n1 | 37.1 | > 160 | 14.6 | 115 | 4.61 | 22.2 | 16.8 | 38 µM | 4.57 | 25.3 µM | 49.8 | > 160 | 71.8 | > 160 µM | 23.1 | 68.5 | 22 | 61.8 µM | 5.27 | 20.2 µM
c1ccc(CSc2nnc3c4ccccc4c4ccccc4c3n2)cc1 |  | > 100 |  | > 100 |  | > 100 |  | > 100 µM |  | > 100 µM |  | > 100 |  | > 100 µM |  | > 78.1 |  | > 100 µM |  | > 100 µM
CCN(CC)c1ccc2cc(NC(=O)OCCNC(=O)CCNC(=O)[C@H](CC(C)C)NC(=O)C(C)(C)NC(=O)C(C)(C)NC(=O)[C@H](CC(C)C)NC(=O)CCNC(=O)C(C)(C)NC(=O)[C@H](CC(C)C)NC(=O)CCNC(=O)[C@@](C)(CC)NC(=O)[C@H](C)NC(=O)CCNC(=O)C(C)(C)NC(=O)[C@H](C)NC(=O)[C@@H]3CCCN3C(=O)[C@@](C)(CC)NC(=O)[C@H](Cc3ccccc3)NC(=O)C3CCCN3C(=O)C(C)(C)NC(=O)C3CCCN3C(=O)C(C)(C)NC(C)=O)c(=O)oc2c1 (some centres not stated) (Ac-[Aib][ξP][Aib][ξP]F[dIva]PA[Aib][βAla]A[dIva][βAla]L[Aib][βAla]L[Aib][Aib]L[βAla][X14]-X15) | 0.00347 | 0.014 | 0.00313 | 0.0286 | 0.0035 | 0.0455 | 0.00491 | 0.0202 µM | 0.00423 | 0.0235 µM | 0.00425 | 0.0348 | 0.00302 | 0.0143 µM | 0.00355 | 0.0426 | 0.00783 | 0.0325 µM | 0.00354 | 0.115 µM
CCC(/C=C/c1ccccc1)=N\Nc1ccc(Cl)c(Cl)c1 |  | > 100 |  | > 100 |  | > 100 |  | 66.1 µM |  | > 100 µM |  | > 100 |  | > 100 µM |  | > 100 |  | > 100 µM |  | > 100 µM
Cn1ccnc1C(=O)/C=C/c1ccc(CC(=O)Nc2ccc(C(F)(F)F)cc2)cc1 | 3.28 | 6.9 | 1.02 | 14.5 | 2.4 | 4.94 | 2.21 | 4.45 µM | 0.718 | 9.94 µM | 3.23 | 8.69 | 5.95 | > 16.7 µM | 2.46 | 5.09 | 2.92 | 6.25 µM | 3.82 | 10.3 µM
CCCCN(CCCC)c1ccc(C(=NC(C)CCCN(CC)CC)c2ccc(N(C)C)cc2)cc1 (configuration not stated) | 0.889 | 1.93 | 0.836 | 1.95 | 0.537 | 1.27 | 0.899 | 1.72 µM | 0.708 | 1.82 µM | 0.965 | 2.33 | 0.809 | 1.89 µM | 1.14 | 2.82 | 0.939 | 1.92 µM | 1.01 | 2.57 µM
CCN1C(=O)N(CC)C2C1NN=c1s/c(=C\c3cc4ccccc4[nH]3)c(=O)n12 (configuration not stated) | 0.0445 | > 76.9 | < 0.01 | 14.6 | < 0.01 | > 37.2 | < 0.01 |  | < 0.01 |  | < 0.012 | > 58.6 | 0.0348 | 5.94 µM | 0.055 | 15.8 | 2.77 | > 83 µM | 0.0433 | > 100 µM
Nc1c(C(=O)Nc2ccccc2)sc2nc3c(cc12)CN(Cc1ccccc1)CC3 | 21.7 | > 100 | 12.1 | > 100 | 11 | > 100 | 2.78 | > 100 µM | 13.1 | > 100 µM | 19.1 | > 100 | 16.2 | > 100 µM | 18.3 | > 100 | 23.2 | > 100 µM | 13.9 | > 100 µM
COc1cc(C(=O)/C=C/c2cccnc2Nc2ccccc2)cc(OC)c1OC | 1.43 | 3 | 0.357 | 1.64 | 0.337 | 1.31 | 1.65 | 3.12 µM | 0.346 | > 100 µM | 0.929 | 2.54 | 1.43 | 3.07 µM | 1.48 | 2.86 | 1.58 | 2.93 µM | 1.3 | 2.86 µM
COCCNc1cc(NC(=O)N2CCCc3cc(CN4CCN(C)CC4=O)c(C=O)nc32)ncc1C#N | > 50 | > 50 | 40.4 | > 50 | 25.6 | > 50 | > 50 | > 50 µM | > 50 | > 50 µM | > 50 | > 50 | 46.5 | > 50 µM | > 50 | > 50 | > 50 | > 50 µM | > 50 | > 50 µM
S=C(Nc1cc(Cl)c(Cl)cc1Cl)SCc1ccccc1 |  | 45.3 |  | > 100 |  | 83 |  | 48.3 µM |  | 10.8 µM |  | 36.6 |  | > 100 µM |  | 96.9 |  | > 100 µM |  | > 100 µM
OCC1OC(n2cnc3c(=S)nc[nH]c32)C(O)C1O (configuration not stated) | 4.15 | > 2500 | 1.82 | > 2500 | 2.78 | > 2500 | 3.3 | > 2500 µM |  | > 2500 µM | 7.46 | > 2500 | 2.95 | > 2500 µM | > 65.2 | > 1960 | > 62.5 | > 2500 µM | 42.5 | > 2500 µM
Cc1[nH]c2ccccc2c1CCNCc1ccc(/C=C/C(=O)NO)cc1 | 0.0246 | 0.15 | < 0.01 | 0.795 | < 0.01 | 0.0142 | 0.0249 | 2.11 µM | < 0.01 |  | 0.0193 | 0.112 | < 0.01 | 0.0344 µM | 0.0244 | 0.323 | < 0.0115 | 0.0728 µM | 0.0158 | 0.101 µM
